Data reported in patent US6653300B2, “Pyrazole compounds useful as protein kinase inhibitors” (Vertex Pharmaceuticals Incorporated, priority 2000, dated 2003).
Like-named read-outs stand apart in the source and are kept apart here.

Columns and labels:
GSK-3β (AA 1-420) = biological target: T1, GSK-3β (AA 1-420) (Homo sapiens, UniProt P49841); experiment: Ki determination for the inhibition of GSK-3 (coupled enzyme system); assay type: biochemical; conditions: 20 μM ATP, 20 nM GSK-3β, 30° C.
T1 construct: GSK-3β (AA 1-420)
Method in brief: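 GSK-3β (AA 1-420, 20 nM) was run in a pyruvate kinase/LDH-coupled NADH assay in 100 mM HEPES pH 7.5, 10 mM MgCl2, 25 mM NaCl, 1 mM DTT, 1.5% DMSO, with 300 μM phosphopeptide substrate. Compound (0.002–30 μM) was preincubated 10 min at 30° C, then 20 μM ATP was added.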

Aurora-2 = biological target: T2, Aurora-2 (Homo sapiens, UniProt O14965); experiment: Ki determination for the inhibition of Aurora-2 (coupled enzyme assay); assay type: biochemical; conditions: 70 nM Aurora-2, 30° C.
T2 sequence (O14965 1-403): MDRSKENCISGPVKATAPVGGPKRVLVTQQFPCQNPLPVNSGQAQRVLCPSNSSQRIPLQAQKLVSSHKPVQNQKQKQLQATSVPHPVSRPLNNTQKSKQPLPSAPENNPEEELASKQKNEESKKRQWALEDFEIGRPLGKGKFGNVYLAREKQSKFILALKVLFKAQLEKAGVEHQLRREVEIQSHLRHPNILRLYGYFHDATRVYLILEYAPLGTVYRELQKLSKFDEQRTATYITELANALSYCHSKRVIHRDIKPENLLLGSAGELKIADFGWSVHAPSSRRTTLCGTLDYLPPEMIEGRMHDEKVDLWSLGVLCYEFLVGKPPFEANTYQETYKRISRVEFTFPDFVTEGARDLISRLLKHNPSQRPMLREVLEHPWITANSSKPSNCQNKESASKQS
Method in brief: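 Ki came from reaction rates plotted against inhibitor concentration, with rates taken as A340 decrease over 5 min at 30° C. Enzyme (70 nM final) was added after 10 min compound preincubation; stock buffer held […], 800 μM LRRASLG, PK/LDH coupling, pH 7.5.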

CDK-2/Cyclin A = CDK-2/Cyclin A (Homo sapiens, UniProt P24941); experiment: CDK-2 inhibition assay (coupled enzyme assay); assay type: biochemical; conditions: 25 nM CDK-2/Cyclin A, 30° C.
Procedure: Compounds were screened in the following manner for their ability to inhibit CDK-2 using a standard coupled enzyme assay (Fox et al (1998) Protein Sci 7, 2249).
To an assay stock buffer solution containing 0.1M HEPES 7.5, 10 mM MgCl2, 1 mM DTT, 25 mM NaCl, 2.5 mM phosphoenolpyruvate, […], 30 mg/ml pyruvate kinase, 10 mg/ml lactate dehydrogenase, 100 mM ATP, and 100 μM peptide ([…], American Peptide, Sunnyvale, Calif.) was added a DMSO solution of a compound of the present invention to a final concentration of 30 μM. The resulting mixture was incubated at 30° C. for 10 min.
The reaction was initiated by the addition of 10 μL of CDK-2/Cyclin A stock solution to give a final concentration of 25 nM in the assay. The rates of reaction were obtained by monitoring absorbance at 340 nm over a 5-minute read time at 30° C. using a BioRad Ultramark plate reader (Hercules, Calif.). The Ki values were determined from the rate data as a function of inhibitor concentration.

human Src kinase = biological target: T3, human Src kinase (Homo sapiens, UniProt P12931); experiment: SRC inhibition assay (radioactivity-based or spectrophotometric assay); assay type: biochemical; conditions: recombinant human Src kinase, assay A or B
T3 construct: full length recombinant human Src kinase (from Upstate Biotechnology, cat. no. 14-117); purchased Upstate Biotechnology 14-117; host or cells: baculo viral cells
Procedure: The compounds were evaluated as inhibitors of human Src kinase using either a radioactivity-based assay or spectrophotometric assay. The compounds were assayed as inhibitors of full length recombinant human Src kinase (from Upstate Biotechnology, cat. no. 14-117) expressed and purified from baculo viral cells. […] P-0275). […] In a typical assay, all the reaction components with the exception of ATP were pre-mixed and aliquoted into assay plate wells. […] The assay plate was incubated at 30° C. for 10 min before initiating the reaction with ^33P-ATP. After 20 min of reaction, the reactions were quenched with 150 μl of 10% trichloroacetic acid (TCA) containing 20 mM Na3PO4. The quenched samples were then transferred to a 96-well filter plate (Whatman, UNI-Filter GF/F Glass Fiber Filter, cat no. 7700-3310) installed on a filter plate vacuum manifold. Filter plates were washed four times with 10% TCA containing 20 mM Na3PO4 and then 4 times with methanol. 200 μl of scintillation fluid was then added to each well. The plates were sealed and the amount of radioactivity associated with the filters was quantified on a TopCount scintillation counter. The radioactivity incorporated was plotted as a function of the inhibitor concentration. The data was fitted to a competitive inhibition kinetics model to get the Ki for the compound. The ADP produced from ATP by the human recombinant Src kinase-catalyzed phosphorylation of poly Glu-Tyr substrate was quanitified using a coupled enzyme assay (Fox et al (1998) Protein Sci 7, 2249). In this assay one molecule of NADH is oxidised to NAD for every molecule of ADP produced in the kinase reaction. The disappearance of NADH can be conveniently followed at 340 nm. […] In a typical assay, all the reaction components with the exception of ATP were pre-mixed and aliquoted into assay plate wells. […] The absorbance change at 340 nm with time, the rate of the reaction, was monitored on a molecular devices plate reader. The data of rate as a function of the inhibitor concentration was fitted to competitive inhibition kinetics model to get the Ki for the compound.

AKT-3 = AKT-3 (Homo sapiens, UniProt Q9Y243); experiment: AKT inhibition assay (coupled enzyme assay); assay type: biochemical; conditions: 45 nM AKT, 170 μM ATP, 30° C.
Procedure: Compounds were screened for their ability to inhibit AKT using a standard coupled enzyme assay (Fox et al., Protein Sci., (1998) 7, 2249). Assays were carried out in a mixture of 100 mM HEPES 7.5, 10 mM MgCl2, 25 mM NaCl, 1 mM DTT and 1.5% DMSO. Final substrate concentrations in the assay were 170 μM ATP (Sigma Chemicals) and 200 μM peptide (RPRAATF, American Peptide, Sunnyvale, Calif.). Assays were carried out at 30° C. and 45 nM AKT. Final concentrations of the components of the coupled enzyme system were 2.5 mM phosphoenolpyruvate, 300 μM NADH, 30 μg/ML pyruvate kinase and 10 μg/ml lactate dehydrogenase.
An assay stock buffer solution was prepared containing all of the reagents listed above, with the exception of AKT, DTT, and the test compound of interest. 56 μl of the stock solution was placed in a 384 well plate followed by addition of 1 μl of 2 mM DMSO stock containing the test compound (final compound concentration 30 μM). The plate was preincubated for about 10 minutes at 30° C. and the reaction initiated by addition of 10 μl of enzyme (final concentration 45 nM) and 1 mM DTT. Rates of reaction were obtained using a BioRad Ultramark plate reader (Hercules, Calif.) over a 5 minute read time at 30° C.

T3 sequence (P12931 whole entry): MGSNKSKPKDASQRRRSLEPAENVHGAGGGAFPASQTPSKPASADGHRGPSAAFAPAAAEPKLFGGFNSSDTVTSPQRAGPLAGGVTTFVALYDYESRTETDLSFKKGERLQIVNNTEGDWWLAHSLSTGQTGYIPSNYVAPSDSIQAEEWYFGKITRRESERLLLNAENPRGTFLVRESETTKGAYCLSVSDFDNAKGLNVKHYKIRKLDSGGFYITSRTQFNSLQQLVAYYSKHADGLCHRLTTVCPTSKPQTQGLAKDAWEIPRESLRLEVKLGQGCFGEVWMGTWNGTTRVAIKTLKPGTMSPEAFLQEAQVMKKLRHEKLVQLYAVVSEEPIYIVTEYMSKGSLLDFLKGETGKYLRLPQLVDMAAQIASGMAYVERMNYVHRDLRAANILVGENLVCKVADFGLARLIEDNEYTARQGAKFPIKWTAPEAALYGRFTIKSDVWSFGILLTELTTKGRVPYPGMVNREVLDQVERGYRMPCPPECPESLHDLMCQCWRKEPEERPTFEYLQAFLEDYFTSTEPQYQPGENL
T1 sequence (P49841 whole entry, the tested form may be a part): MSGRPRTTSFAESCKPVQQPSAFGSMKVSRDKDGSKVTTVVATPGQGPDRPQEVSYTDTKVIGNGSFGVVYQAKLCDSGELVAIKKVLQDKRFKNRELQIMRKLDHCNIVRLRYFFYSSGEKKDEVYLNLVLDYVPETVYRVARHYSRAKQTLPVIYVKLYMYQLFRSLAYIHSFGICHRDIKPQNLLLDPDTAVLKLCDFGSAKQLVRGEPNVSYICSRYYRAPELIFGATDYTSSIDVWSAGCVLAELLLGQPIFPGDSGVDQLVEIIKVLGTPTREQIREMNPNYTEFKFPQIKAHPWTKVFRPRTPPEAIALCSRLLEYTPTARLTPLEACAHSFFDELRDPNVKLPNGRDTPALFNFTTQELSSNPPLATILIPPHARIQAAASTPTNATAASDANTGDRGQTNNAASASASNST
Chain of AKT-3 (Q9Y243 whole entry, species assumed): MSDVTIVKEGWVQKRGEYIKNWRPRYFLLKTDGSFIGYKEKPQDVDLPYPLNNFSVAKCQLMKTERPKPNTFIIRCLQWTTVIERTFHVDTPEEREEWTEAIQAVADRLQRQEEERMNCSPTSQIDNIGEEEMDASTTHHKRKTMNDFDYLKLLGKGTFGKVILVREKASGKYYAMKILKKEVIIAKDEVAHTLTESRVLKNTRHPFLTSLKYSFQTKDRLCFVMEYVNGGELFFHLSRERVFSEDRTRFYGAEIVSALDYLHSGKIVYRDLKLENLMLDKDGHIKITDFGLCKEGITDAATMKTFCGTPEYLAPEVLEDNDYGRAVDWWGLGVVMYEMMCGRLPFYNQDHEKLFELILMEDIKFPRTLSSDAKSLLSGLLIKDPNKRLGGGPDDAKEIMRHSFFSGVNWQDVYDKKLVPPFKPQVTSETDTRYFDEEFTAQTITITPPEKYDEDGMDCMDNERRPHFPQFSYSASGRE

Row | Structure (SMILES) | Ki (GSK-3β (AA 1-420)) | melting point | Ki (Aurora-2) | Ki (CDK-2/Cyclin A) | Ki (human Src kinase; read-out: Ki value on SRC) | Ki (AKT-3) | Ki (human Src kinase; read-out: Ki value for SRC)
1 | Cc1cccc(Sc2nc(Nc3cc(C)[nH]n3)c3ccccc3n2)c1 [IIa-14, [2-(3-Methylphenylsulfanyl)-quinazolin-4-yl]-(5-methyl-2H-pyrazol-3-yl)-amine] | 100 to 1000 nM | 249 to 250 °C | < 100 nM | < 1000 nM | – | – | –
2 | CC(=O)Nc1ccc(Sc2nc(Nc3cc(C)[nH]n3)c3ccccc3n2)cc1 [IIa-38, [2-(4-Acetamidophenylsulfanyl)-quinazolin-4-yl]-(5-methyl-2H-pyrazol-3-yl)-amine] | 100 to 1000 nM | – | < 100 nM | 1000 to 20000 nM | – | – | –
3 | Cc1cccc(Nc2nc(Nc3cc(C4CC4)[nH]n3)c3ccccc3n2)c1C [IIc-42, (5-Cyclopropyl-2H-pyrazol-3-yl)-[2-(2,3-dimethylphenylamino)-quinazolin-4-yl]-amine] | < 100 nM | 241 to 242 °C | < 100 nM | – | < 100 nM | 1000 to 20000 nM | –
4 | c1ccc2c(Nc3cc(C4CC4)[nH]n3)nc(Nc3ccc4[nH]ncc4c3)nc2c1 [IIc-37, (5-Cyclopropyl-2H-pyrazol-3-yl)-[2-(1H-indazol-5-ylamino)-quinazolin-4-yl]-amine] | < 100 nM | – | < 100 nM | – | < 100 nM | 1000 to 20000 nM | –
5 | COC(=O)c1cccc(Nc2nc(Nc3cc(C4CC4)[nH]n3)c3ccccc3n2)c1 [IIc-39, (5-Cyclopropyl-2H-pyrazol-3-yl)-[2-(3-methoxycarbonylphenylamino)-quinazolin-4-yl]-amine] | < 100 nM | 228 to 231 °C | < 100 nM | – | < 100 nM | 1000 to 20000 nM | –
6 | COc1cccc2c(Nc3cc(C)n[nH]3)nc(Sc3ccc(NC(C)=O)cc3)nc12 [IIa-44, [2-(4-Acetamidophenylsulfanyl)-8-methoxy-quinazolin-4-yl]-(5-methyl-2H-pyrazol-3-yl)-amine] | – | 247 to 249 °C | < 100 nM | 1000 to 20000 nM | – | – | 1000 to 6000 nM
7 | c1ccc2c(Nc3cc(C4CC4)[nH]n3)nc(Nc3ccc4cc[nH]c4c3)nc2c1 [IIc-22, (5-Cyclopropyl-2H-pyrazol-3-yl)-[2-(1H-indol-6-ylamino)-quinazolin-4-yl]-amine] | < 100 nM | – | < 100 nM | – | < 100 nM | 1000 to 20000 nM | –
8 | CC(=O)Nc1ccc(Sc2nc(Nc3cc(C)[nH]n3)c3cccc(O)c3n2)cc1 [IIa-52, [2-(4-Acetamido-phenylsulfanyl)-8-hydroxyquinazolin-4-yl]-(5-methyl-2H-pyrazol-3-yl)-amine] | 1000 to 7000 nM | 258 to 259 °C | < 100 nM | 1000 to 20000 nM | – | – | –
9 | N#CCc1ccc(Nc2nc(Nc3cc(C4CC4)[nH]n3)c3ccccc3n2)cc1 [IIc-31, [2-(4-Cyanomethylphenylamino)-quinazolin-4-yl]-(5-cyclopropyl-2H-pyrazol-3-yl)-amine] | < 100 nM | – | < 100 nM | – | < 100 nM | 1000 to 20000 nM | –
10 | Cc1cc(Nc2nc(Sc3ccc(C(=O)NCCN4CCOCC4)cc3)nc3ccccc23)n[nH]1 [IIa-65, (5-Methyl-2H-pyrazol-3-yl)-{2-[4-(2-morpholin-4-yl-ethylcarbamoyl)-phenylsulfanyl]-quinazolin-4-yl}-amine] | 1000 to 7000 nM | 246 to 248 °C | 100 to 1000 nM | – | – | – | 1000 to 6000 nM
11 | Cc1cc(Nc2nc(Nc3ccc(NC(=O)C(C)C)cc3)nc3ccccc23)n[nH]1 [IIc-68, [2-(4-Isobutyrylamino-phenylamino)-quinazolin-4-yl]-(5-methyl-2H-pyrazol-3-yl)-amine] | 1000 to 7000 nM | 176 to 179 °C | < 100 nM | – | – | – | 1000 to 6000 nM
12 | Cc1cc(Nc2nc(Sc3ccc(NC(=O)CN(C)C)cc3)nc3ccccc23)n[nH]1 [IIa-68, {2-[4-(2-Dimethylamino-acetylamino)-phenylsulfanyl]-quinazolin-4-yl}-(5-methyl-2H-pyrazol-3-yl)-amine] | 1000 to 7000 nM | 241 to 243 °C | < 100 nM | – | – | – | 1000 to 6000 nM
13 | Cc1cc(Nc2nc(Sc3ccc(NC(=O)CCN(C)C)cc3)nc3ccccc23)n[nH]1 [IIa-71, {2-[4-(3-Dimethylamino-propionylamino)-phenylsulfanyl]-quinazolin-4-yl}-(5-methyl-2H-pyrazol-3-yl)-amine] | 1000 to 7000 nM | 280 °C (dec.) | < 100 nM | – | – | – | 1000 to 6000 nM
14 | CCCS(=O)(=O)Nc1ccc(Sc2nc(Nc3cc(C)n[nH]3)c3ccccc3n2)cc1 [IIa-54, (5-Methyl-2H-pyrazol-3-yl)-{2-[4-(propane-1-sulfonylamino)-phenylsulfanyl]-quinazolin-4-yl}-amine] | 100 to 1000 nM | 272 to 273 °C | < 100 nM | 1000 to 20000 nM | – | – | 1000 to 6000 nM
15 | Cc1ccc(Nc2nc(Nc3cc(C4CC4)[nH]n3)c3ccccc3n2)cc1C [IIc-33, (5-Cyclopropyl-2H-pyrazol-3-yl)-[2-(3,4-dimethylphenylamino)-quinazolin-4-yl]-amine] | 100 to 1000 nM | 245 to 246 °C | < 100 nM | – | < 100 nM | – | –
